Data from Sander's compilation of Henry's law constants (doi:10.1002/etc.5620180906).

Test: Henry solubility constant Hcp at 298.15 K (mol/(m3 Pa))
Settings: reference: Bamford et al. (1999a)

Cc1cccc2ccccc12 [1-methylnaphthalene]
Henry solubility constant Hcp: 0.021

Cc1cccc2c1ccc1ccccc12 [1-methylphenanthrene]
Henry solubility constant Hcp: 0.2

c1ccc2c(c1)Cc1ccccc1-2 [2,3-benzindene]
Henry solubility constant Hcp: 0.1

Cc1ccc2ccccc2c1 [2-methylnaphthalene]
Henry solubility constant Hcp: 0.019

c1cc2c3c(cccc3c1)CC2 [acenaphthene]
Henry solubility constant Hcp: 0.054

C1=Cc2cccc3cccc1c23 [acenaphthylene]
Henry solubility constant Hcp: 0.079

c1ccc2cc3ccccc3cc2c1 [anthracene]
Henry solubility constant Hcp: 0.18

c1ccc2c(c1)Cc1c-2ccc2ccccc12 [benzo[a]fluorene]
Henry solubility constant Hcp: 0.37

c1ccc2c(c1)-c1cccc3cccc-2c13 [benzo[jk]fluorene]
Henry solubility constant Hcp: 0.51

c1ccc2c(c1)ccc1c3ccccc3ccc21 [chrysene]
Henry solubility constant Hcp: 1.9

c1ccc2c(c1)ccc1ccccc12 [phenanthrene]
Henry solubility constant Hcp: 0.23
